tested on: P. falciparum (NF54 or 3D7 strain); test: Assay for P. falciparum proliferation in infected human blood cells (SYBR Green); assay type: cell-based, Plasmodium falciparum; conditions: Plasmodium falciparum, Erythrocyte, 72 h, NF54 or 3D7 infected human erythrocytes, 72 hours; read-out: EC50 (nM), inhibitory efficacy in delaying P. falciparum proliferation in infected human blood cells
Summary of the method: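 NF54 or 3D7 parasites in O+ human erythrocytes at 2.5% hematocrit and 0.3% parasitemia final, exposed to compounds 72 h at 37 °C under 93% N2/4% CO2/3% O2.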

| EC50 | SMILES |
| --- | --- |
| 6140 nM | CN(C(=O)c1cn2c(-c3ccc(C(F)(F)F)cc3)cnc2cn1)c1ccc(-n2cncn2)nc1 [Compound 365, N-methyl-N-[6-(1H-1,2,4-triazol-1-yl)pyridin-3-yl]-3-[4-(trifluoromethyl)phenyl]imidazo[1,2-a]pyrazine-6-carboxamide] |
| > 6250 nM | CN(C(=O)c1ccc(OC(F)(F)F)cc1)c1cn2c(-c3ccc(C(F)(F)F)cc3)cnc2cn1 [Compound 366, N-methyl-4-(trifluoromethoxy)-N-{3-[4-(trifluoromethyl)phenyl]imidazo[1,2-a]pyrazin-6-yl}benzamide] |
| > 9280 nM | Cc1nnc(-c2ccc(-c3cnc4cnc(C(=O)N(C)c5ccc(Cl)nc5)cn34)cn2)o1 [Compound 367, N-(6-chloropyridin-3-yl)-N-methyl-3-[6-(5-methyl-1,3,4-oxadiazol-2-yl)pyridin-3-yl]imidazo[1,2-a]pyrazine-6-carboxamide] |
| 7040 nM | CCn1nccc1NC(=O)c1cn2c(-c3ccc(C(F)(F)F)cc3)cnc2cn1 [Compound 368, N-(1-ethyl-1H-pyrazol-5-yl)-3-[4-(trifluoromethyl)phenyl]imidazo[1,2-a]pyrazine-6-carboxamide] |
| 1160 nM | CN(C(=O)c1cn2c(-c3ccc(C#N)cc3)cnc2cn1)c1ccc(C(F)(F)F)cc1 [Compound 369, 3-(4-cyanophenyl)-N-methyl-N-[4-(trifluoromethyl)phenyl]imidazo[1,2-a]pyrazine-6-carboxamide] |
| > 9820 nM | O=C(c1cn2c(-c3ccc(C(F)(F)F)cc3)cnc2cn1)N1CCOCC1 [Compound 374, 4-({3-[4-(trifluoromethyl)phenyl]imidazo[1,2-a]pyrazin-6-yl}carbonyl)morpholine] |
| 9490 nM | Cc1nc2cnc(C(=O)Nc3ccc(C#N)cc3)cn2c1-c1ccc(C(F)(F)F)cc1 [Compound 376, N-(4-cyanophenyl)-2-methyl-3-[4-(trifluoromethyl)phenyl]imidazo[1,2-a]pyrazine-6-carboxamide] |
| 8190 nM | CN(C(=O)c1cn2c(-c3ccc(C#N)cc3)cnc2cn1)c1ccc(C#N)cc1 [Compound 377, N,3-bis(4-cyanophenyl)-N-methylimidazo[1,2-a]pyrazine-6-carboxamide] |
| > 7030 nM | Cc1cc(-c2cnc3cnc(C(=O)N(C)c4ccc(C#N)cc4)cn23)ccn1 [Compound 378, N-(4-cyanophenyl)-N-methyl-3-(2-methylpyridin-4-yl)imidazo[1,2-a]pyrazine-6-carboxamide] |
| 6260 nM | CN(C(=O)c1cn2c(-c3ccc4c(c3)CC(=O)N4)cnc2cn1)c1ccc(Cl)nc1 [Compound 379, N-(6-chloropyridin-3-yl)-N-methyl-3-(2-oxo-2,3-dihydro-1H-indol-5-yl)imidazo[1,2-a]pyrazine-6-carboxamide] |
| 8400 nM | CN(C(=O)c1cn2c(-c3ccc(C(F)(F)F)cc3)cnc2cn1)c1ccc(C2CCC2)cn1 [Compound 382, N-(5-cyclobutylpyridin-2-yl)-N-methyl-3-[4-(trifluoromethyl)phenyl]imidazo[1,2-a]pyrazine-6-carboxamide] |
| > 10000 nM | O=C(NCc1ccc(N2CCOCC2)cc1)c1cn2c(-c3ccc(C(F)(F)F)cc3)cnc2cn1 [Compound 383, N-{[4-(morpholin-4-yl)phenyl]methyl}-3-[4-(trifluoromethyl)phenyl]imidazo[1,2-a]pyrazine-6-carboxamide] |
| 6620 nM | CN(C(=O)c1cn2c(-c3ccc(C(F)(F)F)cc3)cnc2cn1)c1ccc(C(C)(C)C)nc1 [Compound 384, N-(6-tert-butylpyridin-3-yl)-N-methyl-3-[4-(trifluoromethyl)phenyl]imidazo[1,2-a]pyrazine-6-carboxamide] |
| > 10000 nM | CN(C(=O)c1cn2c(-c3cc4ccccc4[nH]3)cnc2cn1)c1ccc(Cl)nc1 [Compound 387, N-(6-chloropyridin-3-yl)-3-(1H-indol-2-yl)-N-methylimidazo[1,2-a]pyrazine-6-carboxamide] |
| 2650 nM | Cc1cccnc1N(C)C(=O)c1cn2c(-c3ccc(C(F)(F)F)cc3)cnc2cn1 [Compound 390, N-methyl-N-(3-methylpyridin-2-yl)-3-[4-(trifluoromethyl)phenyl]imidazo[1,2-a]pyrazine-6-carboxamide] |

Continued, compound first:

| SMILES | EC50 |
| --- | --- |
| CC(C)c1nc(-c2cnc3cnc(C(=O)N(C)c4ccc(Cl)nc4)cn23)cs1 [Compound 364, N-(6-chloropyridin-3-yl)-N-methyl-3-[2-(propan-2-yl)-1,3-thiazol-4-yl]imidazo[1,2-a]pyrazine-6-carboxamide] | 8240 nM |
| CN(Cc1ccccc1)C(=O)c1cn2c(-c3ccc(C(F)(F)F)cc3)cnc2cn1 [Compound 370, N-benzyl-N-methyl-3-[4-(trifluoromethyl)phenyl]imidazo[1,2-a]pyrazine-6-carboxamide] | 8200 nM |
| NC(=O)c1ccc(NC(=O)c2cn3c(-c4ccc(C(F)(F)F)cc4)cnc3cn2)nc1 [Compound 371, 2-C-3-[4-(trifluoromethyl)phenyl]imidazo[1,2-a]pyrazine-6-pyridine-2,5-dicarboxamide] | > 10000 nM |
| CN(C(=O)c1cn2c(-c3ccc(OCCN)cc3)cnc2cn1)c1ccc(C#N)cc1 [Compound 372, 3-[4-(2-aminoethoxyl)phenyl]-N-(4-cyanophenyl)-N-methylimidazo[1,2-a]pyrazine-6-carboxamide] | > 10000 nM |
| CC(=O)Nc1ccc(-c2cnc3cnc(C(=O)N(C)c4ccc(C)cn4)cn23)cn1 [Compound 373, 3-(6-acetamidopyridin-3-yl)-N-methyl-N-(5-methylpyridin-2-yl)imidazo[1,2-a]pyrazine-6-carboxamide] | > 9880 nM |
| CN(C(=O)c1cn2c(-c3ccc(C(F)(F)F)cc3)cnc2cn1)c1ccc(CN)cc1 [Compound 375, N-[4-(aminomethyl)phenyl]-N-methyl-3-[4-(trifluoromethyl)phenyl]imidazo[1,2-a]pyrazine-6-carboxamide] | > 6830 nM |
| CN(C(=O)c1cn2c(-c3cnc(N)nc3)cnc2cn1)c1ccc(C#N)cc1 [Compound 380, 3-(2-aminopyrimidin-5-yl)-N-(4-cyanophenyl)-N-methylimidazo[1,2-a]pyrazine-6-carboxamide] | 4500 nM |
| C=Cc1cnc2cnc(C(=O)N(C)c3ccc(Cl)nc3)cn12 [Compound 381, N-(6-chloropyridin-3-yl)-3-ethenyl-N-methylimidazo[1,2-a]pyrazine-6-carboxamide] | 5110 nM |
| CN(C(=O)c1cn2c(-c3ccncc3)cnc2cn1)c1ccc(C#N)cc1 [Compound 385, -(4-cyanophenyl)-N-methyl-3-(pyridin-4-yl)imidazo[1,2-a]pyrazine-6-carboxamide] | > 10000 nM |
| N#Cc1ccc(N(CCN)C(=O)c2cn3c(-c4ccc(C(F)(F)F)cc4)cnc3cn2)cc1 [Compound 386, N-(2-aminoethyl)-N-(4-cyanophenyl)-3-[4-(trifluoromethyl)phenyl]imidazo[1,2-a]pyrazine-6-carboxamide] | > 10000 nM |
| CN(C)Cc1ccc(-c2cnc3cnc(C(=O)N(C)c4ccc(Cl)nc4)cn23)cc1 [Compound 388, N-(6-chloropyridin-3-yl)-3-{4-[(dimethylamino)methyl]phenyl}-N-methylimidazo[1,2-a]pyrazine-6-carboxamide] | 762 nM |
| N#Cc1nc[nH]c1NC(=O)c1cn2c(-c3ccc(C(F)(F)F)cc3)cnc2cn1 [Compound 389, N-(4-cyano-1H-imidazol-5-yl)-3-[4-(trifluoromethyl)phenyl]imidazo[1,2-a]pyrazine-6-carboxamide] | 2000 nM |
